Reference: patent publication US20200253877A1, “GEMCABENE, PHARMACEUTICALLY ACCEPTABLE SALTS THEREOF, COMPOSITIONS THEREOF AND METHODS OF USE THEREFOR” (NEUROBO PHARMACEUTICALS, INC., priority 2018, published 2020)

Tested on: hepatic mRNA expression in STAM™ mice
Test: Murine STAM model of NASH-HCC: hepatic gene expression by quantitative RT-PCR
Assay type: in vivo, mouse
Experimental: A study was performed to evaluate the efficacy of gemcabene calcium salt hydrate Crystal Form 1 having a PSD90 of 52 μm as measured by laser light diffraction, in treating non-alcoholic steatosis hepatitis (NASH) in the murine STAM™ model of NASH-HCC.
Briefly, two-day old neonatal C57BL/6 male mice were administered low-dose streptozotocin (STZ), and were subsequently fed a HFC diet from 4 weeks of age. In this model, the mice typically develop liver steatosis and diabetes, reaching steatohepatitis within 3 weeks, followed by cirrhosis within 8 weeks, and carcinoma within 16 weeks. In the current study, mice were administered daily oral gemcabene calcium salt hydrate Crystal Form 1 starting at week 6 of age and were sacrificed at week 9. […] These STAM™ groups were orally administered from week 6 one of the following: water-vehicle, gemcabene calcium salt hydrate Crystal Form 1 at 30, 100 and 300 mg/kg daily, or telmisartan ([…]®) 10 mg/kg daily. […] All groups were sacrificed at week 9. Vehicle, gemcabene calcium salt hydrate Crystal Form 1, or telmisartan were administered by oral gavage once daily.
Various gene expression markers of liver metabolism were evaluated by Real-Time PCR (RT-PCR) in all mouse groups. Total RNA was extracted from liver samples using RNAiso (Takara Bio, Japan) according to the manufacturer's instructions. […] of RNA was reverse-transcribed using a reaction mixture containing 4.4 mM MgCl2 (F. Hoffmann-La Roche, Switzerland), 40 U RNase inhibitor (Toyobo, Japan), 0.5 mM dNTP (Promega, USA), 6.28 μM random hexamer (Promega), 5×first strand buffer (Promega), 10 mM dithiothreitol (Invitrogen, USA) and 200 U MMLV-RT (Invitrogen) in a final volume of 20 μL. The reaction was carried out for 1 hour at 37° C., followed by 5 minutes at 99° C. Real-time PCR was performed using real-time PCR DICE and SYBR premix Taq (Takara Bio). To calculate the relative mRNA expression level, the expression of each gene was normalized to that of reference gene 36B4 (gene symbol: RplpO). Information of PCR-primer sets is described in Tables 37A-37C. Statistical analyses were performed using the Bonferroni Multiple Comparison Test on GraphPad Prism 6 (GraphPad Software Inc., USA). P values <0.05 were considered statistically significant. Results are expressed as mean±SD.
In order to calculate the relative mRNA expression level, the expression of each gene was normalized to that of the reference gene 36B4 (gene symbol: RplpO). The gene expression levels were measured by quantitative RT-PCR. Results were normalized with values for the vehicle-treated normal group. […] Gemcabene calcium salt hydrate Crystal Form 1 (PSD90=52 μm) modulated the mRNA expression of many hepatic genes that play a significant role in the liver homeostasis and injury.

[1] = gemcabene Form 1 100 mg/kg, telmisartan 10 mg/kg
[2] = vs Vehicle in NASH group, gemcabene Form 1 30 mg/kg
[3] = vs Vehicle in NASH group, gemcabene Form 1 100 and 300 mg/kg
[4] = vs Vehicle in NASH group, gemcabene Form 1 100 and 300 mg/kg, telmisartan 10 mg/kg

CC(C)(CCCCOCCCCC(C)(C)C(=O)O)C(=O)O.[Ca] [6-(5-Carboxy-5-methyl-hexyloxy)-2,2-dimethylhexanoic acid calcium] was tested, and the “LDL receptor gene expression” value (STAM mice) was “no effect”, the “hepatic ApoC-III mRNA” value (STAM mice) was “significantly downregulated” and the “MMP-2 mRNA expression (relative, mean±SD)” value (gemcabene Form 1 100 mg/kg) was 0.5±0.2. The “NF-κB mRNA expression (relative, mean±SD)” value (gemcabene Form 1 100 mg/kg) was 0.9±0.1, the “Sulf-2 mRNA expression (relative, mean±SD)” value (gemcabene Form 1 100 mg/kg) was 3.8±0.7 and the “TIMP-1 mRNA expression (relative, mean±SD)” value (gemcabene Form 1 100 mg/kg) was 3.8±1.6. For the same compound, the “TNF-α mRNA expression (relative to vehicle-treated normal group, mean±SD)” value (gemcabene Form 1 100 mg/kg) was 2.0±0.8, the “ACC-1 mRNA expression (relative, mean±SD)” value [1] was 0.7±0.1 and the “ADH-4 mRNA expression (relative, mean±SD)” value [1] was 0.6±0.1. The “CCR2 mRNA expression (relative, mean±SD)” value [1] was 1.6±0.4, the “CCR5 mRNA expression (relative, mean±SD)” value [1] was 1.4±0.3 and the “CRP mRNA levels (relative, mean±SD)” value [1] was 0.6±0.1. For the same compound, the “MCP-1 mRNA expression (relative, mean±SD)” value [1] was 1.7±0.7, the “MIP-1β mRNA levels (relative, mean±SD)” value [1] was 2.3±0.9 and the “ADH-4 mRNA expression (relative, mean±SD)” value (gemcabene Form 1 300 mg/kg) was 0.5±0.1. For the same compound, the “CCR2 mRNA expression (relative, mean±SD)” value (gemcabene Form 1 300 mg/kg) was 1.7±0.7, the “CCR5 mRNA expression (relative, mean±SD)” value (gemcabene Form 1 300 mg/kg) was 1.3±0.3 and the “CRP mRNA levels (relative, mean±SD)” value (gemcabene Form 1 300 mg/kg) was 0.5±0.1. For the same compound, the “MCP-1 mRNA expression (relative, mean±SD)” value (gemcabene Form 1 300 mg/kg) was 1.6±0.7, the “MIP-1β mRNA levels (relative, mean±SD)” value (gemcabene Form 1 300 mg/kg) was 2.8±1.4 and the “MMP-2 mRNA expression (relative, mean±SD)” value (gemcabene Form 1 300 mg/kg) was 0.9±0.2. The “NF-κB mRNA expression (relative, mean±SD)” value (gemcabene Form 1 300 mg/kg) was 0.8±0.1, the “Sulf-2 mRNA expression (relative, mean±SD)” value (gemcabene Form 1 300 mg/kg) was 3.3±0.9 and the “TIMP-1 mRNA expression (relative, mean±SD)” value (gemcabene Form 1 300 mg/kg) was 4.4±2.1. For the same compound, the “TNF-α mRNA expression (relative to vehicle-treated normal group, mean±SD)” value (gemcabene Form 1 300 mg/kg) was 1.9±0.7, the “ANGPTL4 mRNA expression level” value [2] was “no significant difference” and the “IL-6 mRNA expression level” value [2] was “no significant difference”. For the same compound, the “Fetuin-A mRNA expression level” value (vs Vehicle in NASH group, gemcabene Form 1 100 mg/kg) was “significant down-regulation”, the “SCD mRNA expression level” value (vs Vehicle in NASH group, gemcabene Form 1 300 mg/kg) was “significant up-regulation” and the “hepatic LPL mRNA expression levels” value (vs Vehicle in NASH group, gemcabene Form 1 30, 100 and 300 mg/kg, telmisartan 10 mg/kg) was “significant up-regulations”. For the same compound, the “ANGPTL3 mRNA expression levels” value [3] was “significant down-regulations”, the “CXCL1/KC mRNA expression levels” value [3] was “marked down-regulation” and the “ANGPTL4 mRNA expression levels” value [4] was “significant down-regulations”. The “IL-6 mRNA expression level” value [4] was “significant down-regulations”.
